Results on nine compounds are retold here after patent US6241963A, “Dopamine and serotonin transporter ligands and imaging agents” (priority 1996, dated 2001).

The format of series [1] is in vivo, Male Sprague-Dawley rats. Particulars: rats, iv. On the procedure:
Male Sprague-Dawley rats (225-300 g) allowed free access to food and water were used for in vivo biodistribution studies. Kung, 1984, supra; Kung, 1985, supra. While under ether anesthesia, 0.2 mL of a saline solution containing 1.19a, 1.19b, 1.20a, 1.20b or 1.21 (50-100 μCi) was injected directly into the femoral vein of rats, and the rats were sacrificed by cardiac excision at various time points post-injection. The organs of interest were removed and weighed, and the radioactivity was counted with an automatic gamma counter (Packard 5000). The percentage dose per organ was calculated by a comparison of the tissue counts to suitably diluted aliquots of the injected material. Total activities of blood and muscle were calculated under the assumption that they were 7% and 40% of the total body weight, respectively.
(§1) The major criteria for determining the potential usefulness of in vivo dopamine transporter imaging agents are based on an animal biodistribution study. In this case, rats were used as an animal model. After an intravenous injection of the Tc-99m labeled compounds, the values of initial brain uptake (% dose/whole organ) at 2 minutes post intravenous injection are used to measure the ability to penetrate the intact blood-brain barrier. Compounds displaying higher brain uptake are the better agents (minimum requirement >0.1% dose in brain). The second criteria is the specific uptake in the striatum region of the brain, where dopamine transporters are located. The uptake value (% dose/gram) of the striatum (ST) is divided by the background area, cerebellum (CB; essentially devoid of dopamine transporter); the ratio of ST/CB is an indicator for specific uptake (minimum requirement for ST/CB >1.5). Five structurally similar tropane derivatives were examined in this biological study. (Tables 1.1 to 1.4).
Male Sprague-Dawley rats (225-300 g) that were allowed free access to food and water were used for in vivo biodistribution studies. (Kung, 1984, supra; Kung, 1985, supra). While under halothane anesthesia, 0.2 mL of a saline solution containing 3.24 to 3.34 ([…]) was injected directly into the femoral vein of rats, and they were sacrificed by cardiac excision at various time points post-injection. The organs of interest were removed and weighed, and the radioactivity was counted with an automatic gamma counter (Packard 5000). The percentage dose per organ was calculated by a comparison of the tissue counts to suitably diluted aliquots of the injected material. Total activities of blood and muscle were calculated under the assumption that they were 7% and 40% of the total body weight, respectively.

The target in series [2] is dopamine transporters (Rattus norvegicus, UniProt P23977). Type of series: in vivo, Male Sprague-Dawley rats. Particulars: rats, iv. On the procedure: For dopamine transporter imaging agents, the target area of the brain is the striatum, where dopamine transporters are highly concentrated. The cerebellum region is suitable for use as the background region, because it has no dopamine transporters. The specific uptake is measured by the ratio of % dose/gram of striatum divided by % dose/gram of cerebellum (ST/CB ratio)--the higher the value, the better the specific uptake, and the more promising as a dopamine transporter imaging agent.
Sequence of dopamine transporters (Rattus norvegicus, UniProt P23977) (P23977 whole entry): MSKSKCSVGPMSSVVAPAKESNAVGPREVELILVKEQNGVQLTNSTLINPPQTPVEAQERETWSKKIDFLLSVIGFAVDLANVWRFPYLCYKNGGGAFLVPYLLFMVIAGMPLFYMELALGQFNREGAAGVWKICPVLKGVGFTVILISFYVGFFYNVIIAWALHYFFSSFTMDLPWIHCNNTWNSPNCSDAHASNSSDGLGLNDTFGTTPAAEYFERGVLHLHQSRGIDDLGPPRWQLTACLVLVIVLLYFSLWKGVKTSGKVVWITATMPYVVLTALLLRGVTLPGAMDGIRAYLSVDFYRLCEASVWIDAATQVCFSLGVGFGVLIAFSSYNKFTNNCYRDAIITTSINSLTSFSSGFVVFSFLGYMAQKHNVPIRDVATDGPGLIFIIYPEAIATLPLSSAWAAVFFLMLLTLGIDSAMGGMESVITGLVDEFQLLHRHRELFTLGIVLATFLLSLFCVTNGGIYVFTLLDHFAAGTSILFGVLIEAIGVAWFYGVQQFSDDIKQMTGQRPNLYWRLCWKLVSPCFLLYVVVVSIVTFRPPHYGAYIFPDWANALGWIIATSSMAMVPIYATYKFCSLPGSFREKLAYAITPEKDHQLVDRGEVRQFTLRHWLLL
(§2) Regional brain distribution in rats was obtained after an injection of 1.19a, 1.19b, 1.20a, 1.20b or 1.21. Samples from different brain regions (cortex, striatum, hippocampus, and cerebellum) were dissected, weighed and counted, and the percentage dose per gram of sample was calculated by comparing the sample counts with the count of the diluted initial dose. The uptake ratio of each region was obtained by dividing the percentage dose per gram of that region by that of the cerebellum. For blocking studies, rats were injected with either β-CIT or haloperidol (iv, 1 mg/Kg) 5 min prior to injection of 1.19a. The rats were dissected and brain tissue samples were counted as described above. The specific uptake of the compound was expressed as ratio of ST/CB (% dose/g of striatum divided by the same of cerebellum).
as §1
as §2, with “3.24 to 3.34.” for “1.19a, 1.19b, 1.20a, 1.20b or 1.21.”, “3.25.” for “1.19a.”, “above.” for “above. The specific uptake of the compound was expressed as ratio of ST/CB (% dose/g of striatum divided by the same of cerebellum).”

For series [3], the system named is dopamine transporters. The note with it: cited from earlier work.
The test system of series [4] is dopamine transporter. Briefly: Blocking studies in rats (pretreatment or co-injection with competing agent). The series is classed as in vivo, Male Sprague-Dawley rats. The note with it: 1 mg/kg iv, 5 min before tracer, rats. On the procedure: as §2
as §2, with “3.24 to 3.34.” for “1.19a, 1.19b, 1.20a, 1.20b or 1.21.”, “3.25.” for “1.19a.”, “above.” for “above. The specific uptake of the compound was expressed as ratio of ST/CB (% dose/g of striatum divided by the same of cerebellum).”

Structures are written as SMILES. Values joined by “and” are separate entries in the source; they are usually repeats but may differ in a detail not shown here. Identical values can stand only once. Like-named read-outs stand apart in the source and are kept apart here.

As for `CN1[C@H]2CC[C@@H]1[C@@H](C[N+]13CC[S][99Tc-]14(=[O])[S]CC[N]4CC3)[C@@H](c1ccc(Br)cc1)C2` (stereo partly shown) [Compound 1.20c], in series [1], the “Brain uptake, 2 min” value is on record as 0.41 ± 0.03 % dose/organ and the “Brain uptake, 60 min” value is 0.18 ± 0.01 % dose/organ. Also, in series [2], the “Brain uptake and specific striatal uptake, in words” value was “high initial uptake and high specific retention in brain”; the “ST/CB ratio, 60 min” value is 2.82 and 2.82 ± 0.19.

Consider `COC(=O)[C@H]1[C@@H](c2ccc(Cl)cc2)C[C@@H]2CC[C@H]1N2CCC[N+]12CC[S][99Tc-]13(=[O])[S]CC[N]3CC2` (single isomer, unassigned; peak a) [peak A of (2.6a)], for which, in series [1], the “Blood uptake, 2 min” value is 2.41 ± 0.33 % dose/organ; the “Brain uptake, 2 min” value is on record as 0.25 ± 0.04 % dose/organ; the “Heart uptake, 2 min” value amounted to 0.79 ± 0.03 % dose/organ; the “Kidney uptake, 2 min” value stood at 2.97 ± 0.09 % dose/organ. Moreover, in series [1], the “Liver uptake, 2 min” value is given as 14.29 ± 2.56 % dose/organ; the “Lung uptake, 2 min” value came out at 15.63 ± 2.31 % dose/organ; the “Muscle uptake, 2 min” value was determined as 7.78 ± 0.32 % dose/organ; the “Skin uptake, 2 min” value amounted to 1.59 ± 0.68 % dose/organ. In series [1], the “Spleen uptake, 2 min” value is 0.42 ± 0.10 % dose/organ; the “Blood uptake, 30 min” value is 1.16 ± 0.06 % dose/organ; the “Brain uptake, 30 min” value is reported as 0.13 ± 0.02 % dose/organ; the “Heart uptake, 30 min” value is reported as 0.22 ± 0.02 % dose/organ. For the same compound, in series [1], the “Kidney uptake, 30 min” value turned out to be 1.25 ± 0.11 % dose/organ; the “Liver uptake, 30 min” value is 20.87 ± 2.23 % dose/organ; the “Lung uptake, 30 min” value worked out at 9.65 ± 1.37 % dose/organ; the “Muscle uptake, 30 min” value was 10.41 ± 1.26 % dose/organ. In series [1], the “Skin uptake, 30 min” value is reported as 5.69 ± 0.73 % dose/organ and the “Spleen uptake, 30 min” value is given as 0.42 ± 0.05 % dose/organ.

`CN1[C@H]2CC[C@@H]1[C@@H](C[N+]13CC[S][99Tc-]14(=[O])[S]CC[N]4CC3)[C@@H](c1ccc(Cl)cc1)C2` (single isomer, unassigned; peak a) [Peak A (1.19a)]: in series [1], the “Blood uptake, 2 min” value was 1.98 ± 0.19 % dose/organ; the “Brain uptake, 2 min” value was 0.5 % dose/organ and 0.50 ± 0.06 % dose/organ; the “Heart uptake, 2 min” value came out at 1.76 ± 0.09 % dose/organ; the “Kidney uptake, 2 min” value is given as 5.47 ± 1.04 % dose/organ. In series [1], the “Liver uptake, 2 min” value is 9.55 ± 2.19 % dose/organ; the “Lung uptake, 2 min” value was 9.68 ± 0.51 % dose/organ; the “Muscle uptake, 2 min” value amounted to 33.61 ± 4.31 % dose/organ; the “Skin uptake, 2 min” value turned out to be 2.73 ± 0.39 % dose/organ. Also, in series [1], the “Spleen uptake, 2 min” value turned out to be 0.27 ± 0.04 % dose/organ; the “Blood uptake, 60 min” value stood at 1.00 ± 0.15 % dose/organ; the “Brain uptake, 60 min” value turned out to be 0.21 ± 0.01 % dose/organ; the “Heart uptake, 60 min” value is reported as 0.21 ± 0.00 % dose/organ. Further, in series [1], the “Kidney uptake, 60 min” value is given as 2.04 ± 0.21 % dose/organ; the “Liver uptake, 60 min” value was found to be 17.75 ± 1.81 % dose/organ; the “Lung uptake, 60 min” value is recorded as 3.06 ± 0.28 % dose/organ; the “Muscle uptake, 60 min” value is 14.98 ± 0.49 % dose/organ. Moreover, in series [1], the “Skin uptake, 60 min” value was found to be 3.56 ± 0.65 % dose/organ and the “Spleen uptake, 60 min” value is 0.46 ± 0.18 % dose/organ. Besides, the “ST/CB ratio, 60 min” value in series [2] stood at 2.72.

For `COC(=O)C1C(c2ccc(Cl)cc2)CC2CCC1N2CCC[N+]12CC[S][99Tc-]13(=[O])[S]CC[N]3CC2` (mixture of isomers) [Compound 2.6a], in series [1], the “Brain uptake, 2 min” value amounted to 0.27 ± 0.02 % dose/organ and the “Brain uptake, 30 min” value was determined as 0.11 ± 0.02 % dose/organ. The “Brain uptake and specific striatal uptake, in words” value in series [2] was “displayed a significant brain uptake and specific uptake to the striatum area of the rat brain”.

Consider `COC(=O)[C@H]1[C@@H](c2ccc([123I])cc2)C[C@@H]2CC[C@H]1N2CCCF` [[^123 I]-β-CIT-FP], for which the “Time for reaching optimal uptake ratio / equilibrium” value in series [3] (basal ganglia versus frontal cortex) was “less than one hour”.

For `COC(=O)[C@H]1[C@@H](c2ccc(F)cc2)C[C@@H]2CC[C@H]1N2C` [CFT (WIN35,428)], in series [3] (in vivo), the “Literature binding / localization / biodistribution, in words” value was “much higher binding affinity and selectivity to dopamine reuptake sites”.

In the case of `COC(=O)[C@H]1[C@@H](c2ccc(Cl)cc2)C[C@@H]2CC[C@H]1N2CCC[N+]12CC[S][99Tc-]13(=[O])[S]CC[N]3CC2` (single isomer, unassigned; peak b) [peak B of (2.6a)], in series [1], the “Blood uptake, 2 min” value is 3.96 ± 0.70 % dose/organ; the “Brain uptake, 2 min” value came to 0.19 ± 0.041 % dose/organ; the “Heart uptake, 2 min” value was 0.70 ± 0.21 % dose/organ; the “Kidney uptake, 2 min” value was 2.03 ± 0.45 % dose/organ. Further, in series [1], the “Liver uptake, 2 min” value came out at 19.56 ± 3.21 % dose/organ; the “Lung uptake, 2 min” value came out at 19.16 ± 2.06 % dose/organ; the “Muscle uptake, 2 min” value was 9.92 ± 1.04 % dose/organ; the “Skin uptake, 2 min” value is reported as 1.25 ± 0.17 % dose/organ. Moreover, in series [1], the “Spleen uptake, 2 min” value worked out at 0.42 ± 0.10 % dose/organ; the “Blood uptake, 30 min” value was found to be 1.82 ± 0.43 % dose/organ; the “Brain uptake, 30 min” value stood at 0.094 ± 0.026 % dose/organ; the “Heart uptake, 30 min” value is recorded as 0.24 ± 0.08 % dose/organ. For the same compound, in series [1], the “Kidney uptake, 30 min” value came out at 1.24 ± 0.18 % dose/organ; the “Liver uptake, 30 min” value came to 28.57 ± 2.94 % dose/organ; the “Lung uptake, 30 min” value is 12.51 ± 1.46 % dose/organ; the “Muscle uptake, 30 min” value is reported as 8.09 ± 1.686 % dose/organ. For the same compound, in series [1], the “Skin uptake, 30 min” value amounted to 3.25 ± 0.76 % dose/organ and the “Spleen uptake, 30 min” value is given as 0.67 ± 0.17 % dose/organ.

Regarding `O=C(CCCN1CCC(O)(c2ccc(Cl)cc2)CC1)c1ccc(F)cc1` [haloperidol, reference compound], the “Effect of pretreatment on specific striatal uptake of tracer” value in series [4] is “no blocking effect was observed”.

Turning to `CN1[C@H]2CC[C@@H]1[C@@H](C[N+]13CC[S][99Tc-]14(=[O])[S]CC[N]4CC3)[C@@H](c1ccc(Cl)cc1)C2` (single isomer, unassigned; peak b) [peak B (1.19a)], in series [1], the “Blood uptake, 2 min” value is listed as 4.02 ± 0.20 % dose/organ; the “Brain uptake, 2 min” value is recorded as 0.28 ± 0.01 % dose/organ; the “Heart uptake, 2 min” value was found to be 1.28 ± 0.15 % dose/organ; the “Kidney uptake, 2 min” value came out at 4.47 ± 0.69 % dose/organ. Besides, in series [1], the “Liver uptake, 2 min” value came out at 9.07 ± 1.66 % dose/organ; the “Lung uptake, 2 min” value is 6.00 ± 1.11 % dose/organ; the “Muscle uptake, 2 min” value is reported as 41.46 ± 11.33 % dose/organ; the “Skin uptake, 2 min” value amounted to 3.43 ± 0.62 % dose/organ. For the same compound, in series [1], the “Spleen uptake, 2 min” value is listed as 0.27 ± 0.03 % dose/organ; the “Blood uptake, 60 min” value was found to be 1.89 ± 0.21 % dose/organ; the “Brain uptake, 60 min” value is 0.12 ± 0.02 % dose/organ; the “Heart uptake, 60 min” value came to 0.19 ± 0.06 % dose/organ. In addition, in series [1], the “Kidney uptake, 60 min” value is given as 1.87 ± 0.80 % dose/organ; the “Liver uptake, 60 min” value was determined as 18.71 ± 2.54 % dose/organ; the “Lung uptake, 60 min” value came to 1.23 ± 0.89 % dose/organ; the “Muscle uptake, 60 min” value worked out at 8.60 ± 2.51 % dose/organ. Moreover, in series [1], the “Skin uptake, 60 min” value stood at 4.11 ± 0.62 % dose/organ and the “Spleen uptake, 60 min” value was 0.41 ± 0.24 % dose/organ. Further, the “Brain uptake, 2 min” value in series [1] (listed as Peak B) stood at 0.28 % dose/organ. The “ST/CB ratio, 60 min” value in series [2] stood at 3.79.
